These results are taken from patent publication US20240190860A1, “8-CYCLO-SUBSTITUTED QUINAZOLINE DERIVATIVES AS LPA RECEPTOR 2 INHIBITORS” (CHIESI FARMACEUTICI S.p.A., priority 2021, published 2024).

In the test the target is T1, human recombinant LPA2 expressed in CHO cells (Homo sapiens, UniProt Q9HBW0).
T1 construct: expressed in transfected cells; host or cells: CHO cells (CHO-hLPA2 cell line)
In words: FLIPR calcium mobilization assay, LPA2 antagonism in CHO-hLPA2 cells. In kind it is cell-based. The note with it: CHO-hLPA2 cells, inhibition of LPA EC80 Ca2+ response, 30 min pre-incubation; read-out: LPA2 IC50. As for the experimental part:
The effectiveness of compounds of the present invention as LPA2 antagonist can be determined at the human recombinant LPA2 expressed in CHO cells, using a FLIPR assay in 384 well format.
CHO-hLPA2 cell lines are cultured in a humidified incubator at 5% C02 in DMEM/F-12 (1:1) MIXTURE with 2 mM Glutamax, supplemented with 10% of Foetal Bovine Serum, 1 mM Sodium Pyruvate, 11 mM Hepes and 1× Penicillin/Streptomycin. CHO hLPA2 cells are seeded into black walled clear-bottom 384-well plates (#781091, Greiner Bio-One GmbH) at a density of 7,500 cells per well in 50 μl culture media and grown overnight in a 37° C. humidified CO2-incubator. Serial dilutions (1:3 or 1:4, 11 points CRC) of compounds are performed in 100% DMSO at 200× the final concentration. The compounds are diluted 1:50 prior to the experiment with Assay Buffer (20 mM HEPES, 145 mM NaCl, 5 mM KCl, 5.5 mM glucose, 1 mM MgCl2 and 2 mM CaCl2, pH 7.4 containing 0.01% Pluronic F-127) to obtain a solution corresponding to […] the final concentration in the assay (4×, 2% DMSO). The final concentration of DMSO in the assay will be 0.5% in each well. Medium is removed by aspiration and cells are then incubated with 30 μl of a loading solution containing 5 μM of the cytoplasmic Ca2+ indicator Cal-520 AM in Assay Buffer containing 2.5 mM probenecid for 30 min at 37° C. incubator (cell loading). The loaded cell plates are transferred into the FLIPR instrument and calcium responses are monitored during the on-line addition protocols. For testing of compounds, after the cell loading, 10 μl/well of 4× antagonists' solution was added onto the cells. After 30 min pre-incubation (at 37° C.), 10 μl/well of 5× concentrated LPA EC80 was added and Ca2+ mobilization responses was followed during the on-line addition protocol. Intracellular peak fluorescence values subtracted by baseline fluorescence are exported and analysed to determine IC50 values, respectively. The calcium response is expressed as percentage of the maximal inhibition of the EC80 agonist response.
The raw data (peak height expressed as relative fluorescence units) are normalized and transformed into “percent of inhibition”. Curve fitting and pIC50 (−LogIC50) estimations are carried out using a four-parameter logistic model using XLfit Software.
Background: Calcium flux is commonly read through the fluorescence of an indicator in the cells.

T1 sequence (Q9HBW0 whole entry): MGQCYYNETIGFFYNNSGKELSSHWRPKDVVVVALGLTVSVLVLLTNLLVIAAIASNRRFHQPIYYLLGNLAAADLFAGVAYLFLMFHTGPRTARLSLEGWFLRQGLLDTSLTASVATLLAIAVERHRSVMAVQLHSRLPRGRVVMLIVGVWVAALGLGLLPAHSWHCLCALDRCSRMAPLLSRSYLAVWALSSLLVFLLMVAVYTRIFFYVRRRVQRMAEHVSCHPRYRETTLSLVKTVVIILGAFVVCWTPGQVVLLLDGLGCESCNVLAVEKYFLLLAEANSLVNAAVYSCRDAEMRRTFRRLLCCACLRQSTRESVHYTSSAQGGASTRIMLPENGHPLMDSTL

What is called IC50 is the concentration at which inhibition is half-maximal. `C[C@@H](CN1CCN(S(=O)(=O)c2ccc(Cl)c(Cl)c2)CC1)Nc1ncnc2c(-c3cccc(CN(C)C)c3)cccc12` [Example 46, N-[(2S)-1-[4-(3,4-dichlorobenzenesulfonyl)piperazin-1-yl]propan-2-yl]-8-{3-[(dimethylamino)methyl]phenyl}quinazolin-4-amine]: the IC50 is under 0.01 µM. Consider `COC(=O)Nc1ncc(S(=O)(=O)N2CCN(C[C@H](C)Nc3ncnc4c(-c5cccnc5)cccc34)CC2)s1` [Example 47, methyl N-[5-({4-[(2S)-2-{[8-(pyridin-3-yl)quinazolin-4-yl]amino}propyl]piperazin-1-yl}sulfonyl)-1,3-thiazol-2-yl]carbamate], for which the half-maximal inhibitory concentration (IC50) was under 0.01 µM. Take `COC(=O)Nc1nc(C)c(S(=O)(=O)N2CCN(C[C@H](C)Nc3ncnc4c(-c5cccnc5C)cccc34)CC2)s1` [Example 48, methyl N-[4-methyl-5-({4-[(2S)-2-{[8-(2-methylpyridin-3-yl)quinazolin-4-yl]amino}propyl]piperazin-1-yl}sulfonyl)-1,3-thiazol-2-yl]carbamate]: the IC50 was under 0.01 µM.

Turning to `COCC(=O)Nc1ncc(S(=O)(=O)N2CCN(C[C@H](C)Nc3ncnc4c(-c5cccnc5)cccc34)CC2)s1` [Example 49, 2-methoxy-N-[5-({4-[(2S)-2-{[8-(pyridin-3-yl)quinazolin-4-yl]amino}propyl]piperazin-1-yl}sulfonyl)-1,3-thiazol-2-yl]acetamide], the IC50 fell in the range of 0.01 to 0.1 µM. The value for `C[C@@H](CN1CCN(S(=O)(=O)c2ccc3[nH]c(=O)[nH]c(=O)c3c2)CC1)Nc1ncnc2c(-c3cccnc3)cccc12` [Example 51, 6-({4-[(2S)-2-{[8-(pyridin-3-yl)quinazolin-4-yl]amino}propyl]piperazin-1-yl}sulfonyl)-1,2,3,4-tetrahydroquinazoline-2,4-dione] was under 0.01 µM.

Regarding `C[C@@H](CN1CCN(S(=O)(=O)c2ccc(F)c(F)c2)CC1)Nc1ncnc2c(-c3cccnc3)cccc12` [Example 52, N-[(2S)-1-[4-(3,4-difluorobenzenesulfonyl)piperazin-1-yl]propan-2-yl]-8-(pyridin-3-yl)quinazolin-4-amine], the IC50 lay within 0.01 to 0.1 µM. For `CC(=O)Nc1cc(F)c(S(=O)(=O)N2CCN(C[C@H](C)Nc3ncnc4c(-c5cccc(CN(C)C)c5)cccc34)CC2)cc1C` [Example 53, N-[4-({4-[(2S)-2-[(8-{3-[(dimethylamino)methyl]phenyl}quinazolin-4-yl)amino]propyl]piperazin-1-yl}sulfonyl)-5-fluoro-2-methylphenyl]acetamide], the IC50 is under 0.01 µM. To `CC(=O)N1CCc2cc(S(=O)(=O)N3CCN(C[C@H](C)Nc4ncnc5c(-c6cccc(CN(C)C)c6)cccc45)CC3)ccc21` [Example 54, 1-[5-({4-[(2S)-2-[(8-{3-[(dimethylamino)methyl]phenyl}quinazolin-4-yl)amino]propyl]piperazin-1-yl}sulfonyl)-2,3-dihydro-1H-indol-1-yl]ethan-1-one] belongs under 0.01 µM; to `COC(=O)Nc1nc(C)c(S(=O)(=O)N2CCN(C[C@H](C)Nc3ncnc4c(-c5cncc(CN(C)C)c5)cccc34)CC2)s1` [Example 55, methyl N-[5-({4-[(2S)-2-[(8-{5-[(dimethylamino)methyl]pyridin-3-yl}quinazolin-4-yl)amino]propyl]piperazin-1-yl}sulfonyl)-4-methyl-1,3-thiazol-2-yl]carbamate], under 0.01 µM. The value for `COC(=O)Nc1nc(C)c(S(=O)(=O)N2CCN(C[C@H](C)Nc3ncnc4c(-c5ccc(N)nc5)cccc34)CC2)s1` [Example 56, methyl N-[5-({4-[(2S)-2-{[8-(6-aminopyridin-3-yl)quinazolin-4-yl]amino}propyl]piperazin-1-yl}sulfonyl)-4-methyl-1,3-thiazol-2-yl]carbamate] was 0.01 to 0.1 µM; that for `COC(=O)Nc1nc(C)c(S(=O)(=O)N2CCN(C[C@H](C)Nc3ncnc4c(-c5ccc6c(c5)CNC6)cccc34)CC2)s1` [Example 57, methyl N-[5-({4-[(2S)-2-{[8-(2,3-dihydro-1H-isoindol-5-yl)quinazolin-4-yl]amino}propyl]piperazin-1-yl}sulfonyl)-4-methyl-1,3-thiazol-2-yl]carbamate] was under 0.01 µM. Consider `COC(=O)Nc1nc(C)c(S(=O)(=O)N2CCN(C[C@H](C)Nc3ncnc4c(-c5cnn(CCN(C)C)c5)cccc34)CC2)s1` [Example 58, methyl N-[5-({4-[(2S)-2-[(8-{1-[2-(dimethylamino)ethyl]-1H-pyrazol-4-yl}quinazolin-4-yl)amino]propyl]piperazin-1-yl}sulfonyl)-4-methyl-1,3-thiazol-2-yl]carbamate], for which the IC50 is under 0.01 µM. To `C[C@@H](CN1CCN(S(=O)(=O)c2ccc3[nH]c(=O)cnc3c2)CC1)Nc1ncnc2c(-c3cccnc3)cccc12` [Example 59, 6-({4-[(2S)-2-{[8-(pyridin-3-yl)quinazolin-4-yl]amino}propyl]piperazin-1-yl}sulfonyl)-1,2-dihydroquinoxalin-2-one] belongs 0.01 to 0.1 µM; to `COC(=O)Nc1nc(C)c(S(=O)(=O)N2CCN(C[C@H](C)Nc3ncnc4c(-c5ccc(CN(C)C)nc5)cccc34)CC2)s1` [Example 60, methyl N-[5-({4-[(2S)-2-[(8-{6-[(dimethylamino)methyl]pyridin-3-yl}quinazolin-4-yl)amino]propyl]piperazin-1-yl}sulfonyl)-4-methyl-1,3-thiazol-2-yl]carbamate], under 0.01 µM. Regarding `COC(=O)Nc1nc(C)c(S(=O)(=O)N2CCN(C[C@H](C)Nc3ncnc4c(-c5cncc(N)c5)cccc34)CC2)s1` [Example 61, methyl N-[5-({4-[(2S)-2-{[8-(5-aminopyridin-3-yl)quinazolin-4-yl]amino}propyl]piperazin-1-yl}sulfonyl)-4-methyl-1,3-thiazol-2-yl]carbamate], the IC50 is under 0.01 µM. The value for `COC(=O)Nc1nc(C)c(S(=O)(=O)N2CCN(C[C@H](C)Nc3ncnc4c(-c5cn(C)nc5C)cccc34)CC2)s1` [Example 63, methyl N-[5-({4-[(2S)-2-{[8-(1,3-dimethyl-1H-pyrazol-4-yl)quinazolin-4-yl]amino}propyl]piperazin-1-yl}sulfonyl)-4-methyl-1,3-thiazol-2-yl]carbamate] was under 0.01 µM; that for `COC(=O)Nc1nc(C)c(S(=O)(=O)N2CCN(C[C@H](C)Nc3ncnc4c(-c5cnn(C)c5C)cccc34)CC2)s1` [Example 64, methyl N-[5-({4-[(2S)-2-{[8-(1,5-dimethyl-1H-pyrazol-4-yl)quinazolin-4-yl]amino}propyl]piperazin-1-yl}sulfonyl)-4-methyl-1,3-thiazol-2-yl]carbamate] was under 0.01 µM. As to `COC(=O)Nc1nc(C)c(S(=O)(=O)N2CCN(C[C@H](C)Nc3ncnc4c(-c5cnn(C)c5)cccc34)CC2)s1` [Example 65, methyl N-[4-methyl-5-({4-[(2S)-2-{[8-(1-methyl-1H-pyrazol-4-yl)quinazolin-4-yl]amino}propyl]piperazin-1-yl}sulfonyl)-1,3-thiazol-2-yl]carbamate], the IC50 was under 0.01 µM.

On to `C[C@@H](CN1CCN(S(=O)(=O)c2ccc3c(c2)CC(=O)N3)CC1)Nc1ncnc2c(-c3cccnc3)cccc12` [Example 66, 5-({4-[(2S)-2-{[8-(pyridin-3-yl)quinazolin-4-yl]amino}propyl]piperazin-1-yl}sulfonyl)-2,3-dihydro-1H-indol-2-one], for which the half-maximal inhibitory concentration (IC50) fell in the range of 0.01 to 0.1 µM. To `COC(=O)Nc1nc(C)c(S(=O)(=O)N2CCN(C[C@H](C)Nc3ncnc4c(-c5cncc(N6CCN(C)CC6)c5)cccc34)CC2)s1` [Example 67, methyl N-[4-methyl-5-({4-[(2S)-2-({8-[5-(4-methylpiperazin-1-yl)pyridin-3-yl]quinazolin-4-yl}amino)propyl]piperazin-1-yl}sulfonyl)-1,3-thiazol-2-yl]carbamate] belongs under 0.01 µM.

As to `CC(=O)N1CCc2cc(S(=O)(=O)N3CCN(C[C@H](C)Nc4ncnc5c(-c6cn(C)nc6C(F)(F)F)cccc45)CC3)ccc21` [Example 68, 1-[5-({4-[(2S)-2-({8-[1-methyl-3-(trifluoromethyl)-1H-pyrazol-4-yl]quinazolin-4-yl}amino)propyl]piperazin-1-yl}sulfonyl)-2,3-dihydro-1H-indol-1-yl]ethan-1-one], the IC50 was under 0.01 µM.

`CC(=O)N1CCc2cc(S(=O)(=O)N3CCN(C[C@H](C)Nc4ncnc5c(-c6ccc(C)nc6)cccc45)CC3)ccc21` [Example 69, 1-[5-({4-[(2S)-2-{[8-(6-methylpyridin-3-yl)quinazolin-4-yl]amino}propyl]piperazin-1-yl}sulfonyl)-2,3-dihydro-1H-indol-1-yl}ethan-1-one]: the IC50 is under 0.01 µM.
